Test results reported in article PMC11047580, “Design and Synthesis of Novel Amino and Acetamidoaurones with Antimicrobial Activities” (Antibiotics, 2024).
Converted amounts (≈) assume the structure as drawn.

Columns and labels:
[1] = system: normal lung epithelial cells BEAS-2B; conditions: human
[2] = system: intestinal cell line Caco-2; conditions: human
C. albicans DSM10697 = experiment: MIC assay; type: cell-based, Candida albicans; conditions: Candida albicans, DSM10697; two-fold serial dilutions in liquid media; n = 2–3
P. aeruginosa ATCC9027 = experiment: MIC assay; type: cell-based, Pseudomonas aeruginosa; conditions: Pseudomonas aeruginosa, ATCC9027; two-fold serial dilutions in liquid media; n = 2–3
[3] = system: Mycobacterium abscessus R(CIP 104536^T); experiment: MIC assay (REMA); type: cell-based; conditions: REMA microdilution, n = 2–3
liver cell line HepG2 = conditions: human
[4] = Cytotoxic assay (resazurin); conditions: human, IMR-90 normal lung fibroblasts
[5] = system: Vibrio alginolyticus (DSM2171); experiment: MIC assay; type: cell-based; conditions: two-fold serial dilutions in liquid media, n = 2–3
[6] = system: Clostridium botulinum (DSM1985); experiment: microbe, parasite or virus in culture; type: cell-based; conditions: DSM1985, read-out: MIC Clostridium botulinum (DSM1985)
[7] = system: Salmonella enterica (CIP80.39); experiment: MIC assay; type: cell-based; conditions: two-fold serial dilutions in liquid media, n = 2–3
[8] = system: Brucella melitensis (NR-256); experiment: microbe, parasite or virus in culture; type: cell-based; conditions: read-out: MIC Brucella melitensis (NR-256)
[9] = system: Enterococcus faecalis (DSM2570); experiment: MIC assay; type: cell-based; conditions: two-fold serial dilutions in liquid media, n = 2–3
[10] = system: Fusarium oxysporum (DSM62316); experiment: MIC assay; type: cell-based; conditions: two-fold serial dilutions in liquid media, n = 2–3
[11] = system: Klebsiella pneumonia (DSM26371); experiment: MIC assay; type: cell-based; conditions: two-fold serial dilutions in liquid media, n = 2–3

CC(=O)Nc1ccc2c(c1)C(=O)/C(=C/c1cccc(OCc3ccccc3)c1)O2 [Compound 10, (Z)-N-(2-(3-(benzyloxy)benzylidene)-3-oxo-2,3-dihydrobenzofuran-5-yl)acetamide]
TI with MIC of 0.78 µM, BEAS-2B [1]: 216.6 | TI with MIC of 0.78 µM, Caco-2 [2]: 255.8 | MIC (C. albicans DSM10697): 50 µM (≈ 19.3 µg/mL) | MIC (P. aeruginosa ATCC9027): 25 µM (≈ 9.64 µg/mL) | MIC ([3]; Mycobacteroides abscessus, CIP104536, R morphotype): > 100 µM | MIC Mycobacterium abscessus R(CIP 104536^T) ([3]; R morphotype): inactive | TI with MIC of 0.78 µM, HepG-2 (liver cell line HepG2): 605.6 | CC50 at 48 h [4]: 421 µM | MIC [5]: 25 µM (≈ 9.64 µg/mL) | melting point: 204.5 °C | MIC [6]: 0.78 µM (≈ 0.301 µg/mL) | MIC [7]: 25 µM (≈ 9.64 µg/mL) | MIC [8]: 25 µM (≈ 9.64 µg/mL) | MIC [9]: 50 µM (≈ 19.3 µg/mL) | MIC [10]: 25 µM (≈ 9.64 µg/mL) | MIC ([11]; Klebsiella pneumoniae, DSM26371): > 100 µM | MIC [11]: >100 µM
